Data taken from PMC8570587 (Medicinal chemistry research : an international journal for …, 2021).

Tests used:
[1] = ORAC antioxidant assay; assay type: physicochemical; settings: read-out: ORAC antioxidant EC50; positive control
[2] = molecular target: T1, recombinant human MAO-B (Homo sapiens, UniProt P27338); assay: MAO-B enzyme inhibition assay; assay type: biochemical
T1 sequence (P27338 1-520): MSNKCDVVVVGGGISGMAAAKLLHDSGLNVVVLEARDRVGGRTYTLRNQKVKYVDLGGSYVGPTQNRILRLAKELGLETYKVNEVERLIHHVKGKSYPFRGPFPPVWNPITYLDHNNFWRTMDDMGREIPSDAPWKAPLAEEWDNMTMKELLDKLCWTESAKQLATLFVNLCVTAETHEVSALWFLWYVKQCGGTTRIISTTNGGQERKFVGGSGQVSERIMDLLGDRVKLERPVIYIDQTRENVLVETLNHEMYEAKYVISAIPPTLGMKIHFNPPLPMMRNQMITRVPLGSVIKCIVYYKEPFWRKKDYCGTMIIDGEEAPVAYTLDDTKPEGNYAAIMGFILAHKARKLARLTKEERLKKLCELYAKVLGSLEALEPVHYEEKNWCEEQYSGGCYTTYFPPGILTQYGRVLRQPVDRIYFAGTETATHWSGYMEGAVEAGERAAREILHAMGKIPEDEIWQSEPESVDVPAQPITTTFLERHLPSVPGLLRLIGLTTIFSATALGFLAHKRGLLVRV

Row | SMILES | EC50 [1] [µM] | IC50 [2] [µM]
1 | O=C1O[C@H]([C@@H](O)CO)C(O)=C1O [Vitamin C] | 25.9 | –
2 | NS(=O)(=O)Cc1noc2ccccc12 [Zonisamide] | – | 22.6
